What was measured:
Rtkn = assay: ToxTracker genotoxicity assay, Rtkn GFP reporter; details: fold induction vs vehicle control
[1] = Storage stability of the crosslinker dispersion (gelling / coagulation); details: dispersion pH 11 with TEA, Maxemul 7101
Description: Functional performance and stability of the crosslinker dispersion were assessed using spot tests on coating surfaces, based on procedures from the DIN 68861-1 standard, and viscosity measurements using a Brookfield DVE-LV viscometer (S62 spindle at 60 rpm unless mentioned otherwise). For these tests, the crosslinker dispersion was stored in an oven at 50° C. for 4 weeks. Every week, the viscosity of the crosslinker dispersion was determined. […] This coating composition was filtered and applied to Leneta test cards using 100 μm wire rod applicators (Test 1). For reference, films were also cast from the same composition lacking the crosslinker dispersion (Test Blank). The films were dried for 1 hour at 25° C., then annealed at 50° C. for 16 hours. Subsequently, a piece of cotton wool was soaked in 1:1 EtOH: demineralized water and placed on the film for 1 hour.

[2] = described in U.S. Pat. No. 5,133,997; cited from earlier work

## CCCCOCC(CN1CC1)OC(=O)NCCCCCCn1c(=O)n(CCCCCCNC(=O)OC(COCCCC)CN2CC2)c(=O)n(CCCCCCNC(=O)OC(COCCCC)CN2CC2)c1=O (stereo not drawn) [Composition 1]
Rtkn; With S9 rat liver extract, at 10% cytotoxicity, 3 h exposure and 24 h recovery
  Rtkn GFP reporter induction level: 1.0
Rtkn; With S9 rat liver extract, at 25% cytotoxicity, 3 h exposure and 24 h recovery
  Rtkn GFP reporter induction level: 1.1
Rtkn; With S9 rat liver extract, at 50% cytotoxicity, 3 h exposure and 24 h recovery
  Rtkn GFP reporter induction level: 1.1
Rtkn; Without S9 rat liver extract, at 10% cytotoxicity, 24 h exposure
  Rtkn GFP reporter induction level: 1.0
Rtkn; Without S9 rat liver extract, at 25% cytotoxicity, 24 h exposure
  Rtkn GFP reporter induction level: 1.0
Rtkn; Without S9 rat liver extract, at 50% cytotoxicity, 24 h exposure
  Rtkn GFP reporter induction level: 0.9

## O=C(NCCCCCCn1c(=O)n(CCCCCCNC(=O)OCCN2CC2)c(=O)n(CCCCCCNC(=O)OCCN2CC2)c1=O)OCCN1CC1 [Example C4]
[1]
  Storage stability of dispersion: a storage stable dispersion was not obtained
  Time until severe coagulation was observed after preparation of the dispersion: ≤ 4 h

## O=C(CCN1CC1)OCC(CO)(COC(=O)CCN1CC1)COC(=O)CCN1CC1 [XAMA-7]
[2]
  Stability in water: unstable in water

Source: US12378188B2, “Waterborne crosslinker composition” (priority 2020, dated 2025)
